test system: Dirofilaria immitis microfilariae; assay: in vitro microwell motility assay against heartworm microfilariae; type: cell-based; conditions: microfilaria from canine blood, 384 well plate, 72 hours incubation at 37° C. and 5% CO2, LemnaTec Scanalyzer

Compound | ED50 (dose at which the overall microfilaria motility was reduced by 50% compared to that of an untreated control) [µM]
CC(C#N)(NC(=O)c1ccc(S(F)(F)(F)(F)F)cc1)C1Cc2cc(C#N)cc(Cl)c2O1 (stereo not shown) [test compound 80, N-[1-(7-chloro-5-cyano-2,3-dihydro-1-benzofuran-2-yl)-1-cyanoethyl]-4-(pentafluorothio)benzamide] | 3.3
CC(C#N)(COc1ccc(-c2ccncc2)cc1C(F)(F)F)NC(=O)c1ccc(S(F)(F)(F)(F)F)cc1 (stereo not shown) [test compound 81, N-{1-cyano-1-methyl-2-[4-pyridin-4-yl-2-(trifluoromethyl)phenoxy]ethyl}-4-(pentafluorothio)benzamide] | 3.3
CC(C#N)(COc1c(F)cc(F)cc1C#N)NC(=O)c1ccc(S(F)(F)(F)(F)F)cc1 (stereo not shown) [test compound 54, N-[1-cyano-2-(2-cyano-4,6-difluorophenoxy)-1-methylethyl]-4-(pentafluorothio)-benzamide] | 33
COc1ccc(Oc2ccc(C#N)cc2OCC(C)(C#N)NC(=O)c2ccc(S(F)(F)(F)(F)F)cc2)cc1 (stereo not shown) [test compound 66, N-{1-cyano-2-[5-cyano-2-(4-methoxyphenoxy)phenoxy]-1-methylethyl}-4-(pentafluorothio)benzamide] | 3.3
Cc1ccc(Oc2ccc(C#N)cc2OCC(C)(C#N)NC(=O)c2ccc(S(F)(F)(F)(F)F)cc2)c(C)c1 (stereo not shown) [test compound 72, N-{1-cyano-2-[5-cyano-2-(2,4-dimethylphenoxy)phenoxy]-1-methylethyl}-4-(pentafluorothio)benzamide] | 1
COc1ccc(Oc2ccc(C#N)cc2OCC(C)(C#N)NC(=O)c2ccc(S(F)(F)(F)(F)F)cc2)c(F)c1F (stereo not shown) [test compound 76, N-{1-cyano-2-[5-cyano-2-(2,3-difluoro-4-methoxyphenoxy)phenoxy]-1-methylethyl}-4-(pentafluorothio)benzamide] | 10
CC(C#N)(COc1cc(Br)cc(C#N)c1)NC(=O)c1ccc(S(F)(F)(F)(F)F)cc1 (stereo not shown) [test compound 33, N-[2-(3-bromo-5-cyanophenoxy)-1-cyano-1-methylethyl]-4-(pentafluorothio)-benzamide] | 33
CC(C#N)(COc1cc(C#N)ccc1Oc1ccc(F)cc1)NC(=O)c1ccc(S(F)(F)(F)(F)F)cc1 (stereo not shown) [test compound 61, N-{1-cyano-2-[5-cyano-2-(4-fluorophenoxy)phenoxy]-1-methylethyl}-4-(pentafluorothio)benzamide] | 1
CC(C#N)(COc1ccc(Br)cc1F)NC(=O)c1ccc(S(F)(F)(F)(F)F)cc1 (stereo not shown) [test compound 32, N-[2-(4-bromo-2-fluorophenoxy)-1-cyano-1-methylethyl]-4-(pentafluorothio)-benzamide] | 33
CC(C#N)(COc1cc(C#N)ccc1Oc1ccc(Cl)cc1Cl)NC(=O)c1ccc(S(F)(F)(F)(F)F)cc1 (stereo not shown) [test compound 65, N-{1-cyano-2-[5-cyano-2-(2,4-dichlorophenoxy)phenoxy]-1-methylethyl}-4-(pentafluorothio)benzamide] | 3.3
CC(C#N)(NC(=O)c1ccc(S(F)(F)(F)(F)F)cc1)C1Cc2cc(C#N)cc(C(F)(F)F)c2O1 (stereo not shown) [test compound 83, N-{1-cyano-1-[5-cyano-7-(trifluoromethyl)-2,3-dihydro-1-benzofuran-2-yl]ethyl}-4-(pentafluorothio)benzamide] | 10
CC(C#N)(COc1cccc(Cl)c1C#N)NC(=O)c1ccc(S(F)(F)(F)(F)F)cc1 (stereo not shown) [test compound 17, N-[2-(3-chloro-2-cyanophenoxy)-1-cyano-1-methylethyl]-4-(pentafluorothio)-benzamide] | 10
CC(C#N)(COc1cc(C#N)ccc1Br)NC(=O)c1ccc(S(F)(F)(F)(F)F)cc1 (stereo not shown) [test compound 27, N-[2-(2-bromo-5-cyanophenoxy)-1-cyano-1-methylethyl]-4-(pentafluorothio)-benzamide] | 3.3
CC(C#N)(COc1cc(C#N)ccc1Cl)NC(=O)c1ccc(S(F)(F)(F)(F)F)cc1 (stereo not shown) [test compound 57, N-[2-(2-chloro-5-cyanophenoxy)-1-cyano-1-methylethyl]-4-(pentafluorothio)-benzamide] | 10
CC(C#N)(COc1ccc(Cl)c(Cl)c1)NC(=O)c1ccc(S(F)(F)(F)(F)F)cc1 (stereo not shown) [test compound 38, N-[1-cyano-2-(3,4-dichlorophenoxy)-1-methylethyl]-4-(pentafluorothio)benzamide] | 33
CC(C#N)(COc1cc(C#N)ccc1Oc1ccc(F)cc1Cl)NC(=O)c1ccc(S(F)(F)(F)(F)F)cc1 (stereo not shown) [test compound 63, N-{2-[2-(2-chloro-4-fluorophenoxy)-5-cyanophenoxy]-1-cyano-1-methylethyl}-4-(pentafluorothio)benzamide] | 3.3
CC(C#N)(COc1ccc(C#N)cc1OC(F)(F)F)NC(=O)c1ccc(S(F)(F)(F)(F)F)cc1 (stereo not shown) [test compound 56, N-{1-cyano-2-[4-cyano-2-(trifluoromethoxy)phenoxy]-1-methylethyl}-4-(pentafluorothio)benzamide] | 3.3
CC(C#N)(COc1cc(Cl)ccc1Cl)NC(=O)c1ccc(S(F)(F)(F)(F)F)cc1 (stereo not shown) [test compound 39, N-[1-cyano-2-(2,5-dichlorophenoxy)-1-methylethyl]-4-(pentafluorothio)benzamide] | 10
CC(C#N)(COc1cc(C#N)ccc1Oc1ccc(Cl)cc1F)NC(=O)c1ccc(S(F)(F)(F)(F)F)cc1 (stereo not shown) [test compound 62, N-{2-[2-(4-chloro-2-fluorophenoxy)-5-cyanophenoxy]-1-cyano-1-methylethyl}-4-(pentafluorothio)benzamide] | 1
CC(C#N)(COc1cc(C#N)ccc1Oc1ccc(Cl)cc1)NC(=O)c1ccc(S(F)(F)(F)(F)F)cc1 (stereo not shown) [test compound 64, N-{2-[2-(4-chlorophenoxy)-5-cyanophenoxy]-1-cyano-1-methylethyl}-4-(pentafluorothio)benzamide] | 1
CC(C#N)(COc1cc(C#N)ccc1Cl)NC(=O)c1ccc(S(F)(F)(F)(F)F)cc1 (stereo not shown) [test compound 4, N-[2-(2-chloro-5-cyanophenoxy)-1-cyano-1-methylethyl]-4-(pentafluorothio)benzamide] | 10

test system: L4 stage larvae of D. immitis; assay: L4 stage larvae motility/kill assay; type: cell-based, Dirofilaria immitis; conditions: not given

Compound | active against L4 D. immitis at 10 μM
ivermectin [reference compound] | active
CO[C@H]1C[C@H](O[C@@H]2/C(C)=C/C[C@@H]3C[C@@H](C[C@]4(CC[C@H](C)[C@@H](C5CCCCC5)O4)O3)OC(=O)[C@@H]3C=C(C)/C(=N/O)[C@H]4OC/C(=C\C=C\[C@@H]2C)[C@]43O)O[C@@H](C)[C@@H]1O [Selamectin, reference compound] | active

same assay, conditions: screened at 10 μM in duplicate, 96-well plate; motility observed at 4, 24, 48 and 72 hours; endpoint defined as ED80 (80% of larvae killed)

Compound | active against L4 D. immitis at 10 μM
CC(C#N)(COc1ccc(C#N)cc1C(F)(F)F)NC(=O)c1ccc(S(F)(F)(F)(F)F)cc1 (stereo not shown) [test compound 7, N-{1-cyano-2-[4-cyano-2-(trifluoromethyl)phenoxy]-1-methylethyl}-4-(pentafluorothio)benzamide] | active
CC(C#N)(COc1ccc(I)cc1)NC(=O)c1ccc(S(F)(F)(F)(F)F)cc1 (stereo not shown) [test compound 13, N-[1-cyano-2-(4-iodophenoxy)-1-methylethyl]-4-(pentafluorothio)benzamide] | active
CC(C#N)(COc1ccc(Cl)cc1C#N)NC(=O)c1ccc(S(F)(F)(F)(F)F)cc1 (stereo not shown) [test compound 11, N-[2-(4-chloro-2-cyanophenoxy)-1-cyano-1-methylethyl]-4-(pentafluorothio)-benzamide] | active
CC(C#N)(NC(=O)c1ccc(S(F)(F)(F)(F)F)cc1)C1Cc2cc(C#N)cc(Cl)c2O1 (stereo not shown) [test compound 80, N-[1-(7-chloro-5-cyano-2,3-dihydro-1-benzofuran-2-yl)-1-cyanoethyl]-4-(pentafluorothio)benzamide] | active
CO/N=C1\C[C@]2(C[C@@H]3C[C@@H](C/C=C(\C)C[C@@H](C)/C=C/C=C4\CO[C@@H]5[C@H](O)C(C)=C[C@@H](C(=O)O3)[C@]45O)O2)O[C@H](/C(C)=C/C(C)C)[C@H]1C [moxidectin, reference compound] | active
CC(C#N)(COc1ccc(Cl)cc1)NC(=O)c1ccc(S(F)(F)(F)(F)F)cc1 (stereo not shown) [test compound 10, N-[2-(4-chlorophenoxy)-1-cyano-1-methylethyl]-4-(pentafluorothio)benzamide] | active
COc1ccccc1Oc1ccc(C#N)cc1OCC(C)(C#N)NC(=O)c1ccc(S(F)(F)(F)(F)F)cc1 (stereo not shown) [test compound 69, N-{1-cyano-2-[5-cyano-2-(2-methoxyphenoxy)phenoxy]-1-methylethyl}-4-(pentafluorothio)benzamide] | active
milbemycin oxime [reference compound] | active
CC(C#N)(COc1ccc(-c2ccncc2)cc1C(F)(F)F)NC(=O)c1ccc(S(F)(F)(F)(F)F)cc1 (stereo not shown) [test compound 81, N-{1-cyano-1-methyl-2-[4-pyridin-4-yl-2-(trifluoromethyl)phenoxy]ethyl}-4-(pentafluorothio)benzamide] | active
CC(C#N)(COc1ccc(Cl)cc1Cl)NC(=O)c1ccc(S(F)(F)(F)(F)F)cc1 (stereo not shown) [test compound 8, N-[1-cyano-2-(2,4-dichlorophenoxy)-1-methylethyl]-4-(pentafluorothio)benzamide] | active
CC(C#N)(COc1ccc(C#N)cc1Br)NC(=O)c1ccc(S(F)(F)(F)(F)F)cc1 (stereo not shown) [test compound 29, N-[2-(2-bromo-4-cyanophenoxy)-1-cyano-1-methylethyl]-4-(pentafluorothio)-benzamide] | active

— patent US8962681B2, “Use of aminoacetonitrile derivatives against endoparasites” (Zoetis LLC, priority 2011, dated 2015)
